Measured values as given in paper PMC7667546 (Iranian Journal of Pharmaceutical Research : IJPR, 2020).
≈ marks a conversion by molar mass, not a printed value. Where “and” joins values, the source holds several entries; their conditions need not be identical. Equal entries are not always repeated. Structures can show the parent of a compound that is named as a salt. Where two headings read alike, the source gives them in different places.

Experiments:
[1] = biological target: T1, acetylcholinesterase (AChE) (Homo sapiens, UniProt P22303); assay: biochemical; settings: for inhibition at 10 µg/mL: read-out: Inhibition (%) AChE
T1 construct: purchased Sigma-Aldrich (Steinheim, Germany)
Method: (§1) Details of all biological activity and molecular modeling studies are given as supplementary material. The enzyme activities of the extracts were studied by observing urease, tyrosinase acetyl- and butyryl-cholinesterase inhibition activities ([22]-[25]). The ligands were then applied with partial atomic charges derived by ﬁtting Antechamber obtained by electronic structure calculation module in AMBER and assigned the AM1-BCC charges ([26]-[29]).
(§2) All compounds were assayed in-vitro against AChE and BChE at 100-0.1 µg/mL.

[2] = biological target: T2, butyrylcholinesterase (BChE) (Homo sapiens, UniProt P06276); assay: Butyrylcholinesterase inhibition in vitro; assay type: biochemical; settings: for IC50: assayed at 100-0.1 µg/mL, mean ± S.D.; for inhibition at 10 µg/mL: read-out: Inhibition (%) BChE
T2 construct: purchased Sigma-Aldrich (Steinheim, Germany)
Method: as §1, §2

tyrosinase = assay: Tyrosinase inhibition in vitro; assay type: biochemical, mushroom; settings: N.A. = not active; for Inhibition (%) Tyrosinase: 10µg/mL, mean ± S.D. of three measurements; for Equivalent Tyrosinase (µg kojic acid activity/mg compound): mean ± S.D.
Source text: as §1

urease = biological target: T3, urease (Canavalia ensiformis, UniProt P07374); assay: biochemical; design: species or system Canavalia ensiformis (Jack bean); settings: N.A. = not active; for Inhibition (%) Urease: 10µg/mL; for Inhibition (%) Urease / inhibition at 10 µg/mL: mean ± S.D. of three measurements; for Equivalent Urease (µg thiourea activity/mg compound): mean ± S.D.; for inhibition at 10 µg/mL: read-out: Inhibition (%) Urease, 10µg/mL
T3 construct: purchased Sigma (Germany) Type III, powder, 15,000-50,000 units/g solid
Source text: as §1

BChE [3] = test system: BChE; design: method as in Senol et al (2017); settings: ref Senol et al (2017); cited from earlier work
BChE [4] = test system: BChE; design: method as in Ramirez et al. ([39]); settings: ref Ramirez et al. ([39]); read-out: IC50 against BChE; cited from earlier work
[5] = 10µg/mL, mean ± S.D. of three measurements, N.A. = not active
[6] = assayed at 100-0.1 µg/mL, mean ± S.D., N.A. = not active, read-out: IC50 AChE (converted)
[7] = read-out: IC50 BChE (converted)

T1 sequence (P22303 32-614, species assumed): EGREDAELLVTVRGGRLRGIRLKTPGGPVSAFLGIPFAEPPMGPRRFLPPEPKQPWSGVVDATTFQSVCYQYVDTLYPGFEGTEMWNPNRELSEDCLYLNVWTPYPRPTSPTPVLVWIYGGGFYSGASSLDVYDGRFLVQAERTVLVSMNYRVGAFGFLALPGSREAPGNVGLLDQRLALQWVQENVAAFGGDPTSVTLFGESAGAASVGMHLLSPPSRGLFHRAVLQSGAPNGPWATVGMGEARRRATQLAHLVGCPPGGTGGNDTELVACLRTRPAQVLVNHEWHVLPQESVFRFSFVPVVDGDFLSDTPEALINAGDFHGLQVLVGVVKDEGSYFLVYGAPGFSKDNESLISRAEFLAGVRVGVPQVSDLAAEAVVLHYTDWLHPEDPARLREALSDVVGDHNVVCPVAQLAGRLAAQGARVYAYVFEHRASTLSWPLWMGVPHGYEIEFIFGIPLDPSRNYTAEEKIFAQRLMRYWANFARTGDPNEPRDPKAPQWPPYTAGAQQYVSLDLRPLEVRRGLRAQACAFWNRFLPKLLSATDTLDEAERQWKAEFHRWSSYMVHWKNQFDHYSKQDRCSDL
T2 sequence (P06276 29-602): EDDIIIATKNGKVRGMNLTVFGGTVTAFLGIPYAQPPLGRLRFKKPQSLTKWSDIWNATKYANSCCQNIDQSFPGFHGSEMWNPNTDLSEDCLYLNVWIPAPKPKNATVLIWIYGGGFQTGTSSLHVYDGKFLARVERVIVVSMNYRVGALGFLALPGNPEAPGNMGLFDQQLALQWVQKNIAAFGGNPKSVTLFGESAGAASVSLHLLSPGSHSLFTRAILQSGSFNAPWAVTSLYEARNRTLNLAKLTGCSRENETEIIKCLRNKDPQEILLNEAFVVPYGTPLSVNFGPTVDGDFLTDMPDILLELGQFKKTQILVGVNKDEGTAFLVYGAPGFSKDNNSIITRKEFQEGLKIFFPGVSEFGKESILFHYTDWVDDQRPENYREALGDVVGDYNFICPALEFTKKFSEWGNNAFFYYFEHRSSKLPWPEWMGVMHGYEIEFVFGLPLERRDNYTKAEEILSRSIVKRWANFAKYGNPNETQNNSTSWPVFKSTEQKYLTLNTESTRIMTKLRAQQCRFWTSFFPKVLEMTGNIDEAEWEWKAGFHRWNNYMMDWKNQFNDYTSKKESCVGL
T3 sequence (P07374 whole entry, looked up): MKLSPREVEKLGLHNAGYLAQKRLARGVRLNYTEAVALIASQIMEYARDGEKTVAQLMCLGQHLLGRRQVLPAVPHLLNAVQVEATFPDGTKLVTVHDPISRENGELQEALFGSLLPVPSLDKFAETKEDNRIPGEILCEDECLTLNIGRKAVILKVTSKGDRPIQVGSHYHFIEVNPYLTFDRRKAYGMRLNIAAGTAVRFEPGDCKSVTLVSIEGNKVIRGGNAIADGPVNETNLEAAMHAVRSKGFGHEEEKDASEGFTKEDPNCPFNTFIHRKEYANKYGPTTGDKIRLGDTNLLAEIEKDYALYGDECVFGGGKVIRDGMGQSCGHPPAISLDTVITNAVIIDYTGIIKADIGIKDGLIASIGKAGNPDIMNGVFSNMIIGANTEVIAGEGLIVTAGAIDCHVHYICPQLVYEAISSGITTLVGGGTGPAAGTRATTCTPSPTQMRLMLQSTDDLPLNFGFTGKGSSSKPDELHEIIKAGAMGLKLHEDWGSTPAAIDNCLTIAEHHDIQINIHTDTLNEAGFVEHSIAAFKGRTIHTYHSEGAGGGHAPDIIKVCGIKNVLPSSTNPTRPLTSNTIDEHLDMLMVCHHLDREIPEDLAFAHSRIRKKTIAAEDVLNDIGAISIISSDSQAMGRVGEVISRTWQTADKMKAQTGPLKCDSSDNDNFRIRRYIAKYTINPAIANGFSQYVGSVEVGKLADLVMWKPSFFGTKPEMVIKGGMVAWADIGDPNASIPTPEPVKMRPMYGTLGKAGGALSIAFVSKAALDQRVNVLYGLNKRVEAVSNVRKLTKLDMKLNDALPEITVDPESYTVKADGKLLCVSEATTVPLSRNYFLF

SMILES	inhibition at 10 µg/mL [1, 5] [%]	IC50 [1, 6] [µM]	IC50 ([2]; IC50 BChE) [µM]	inhibition at 10 µg/mL [2] [%]	Inhibition (%) Tyrosinase (tyrosinase) [%]	Equivalent Urease (µg thiourea activity/mg compound) (urease)	inhibition at 10 µg/mL (urease) [%]	IC50 [1] [µM]	also measured
O=C(/C=C/c1ccc(O)c(O)c1)O[C@H](Cc1ccc(O)c(O)c1)C(=O)O [Compound 1, Rosmarinic acid]	20.2 ± 0.21	> 278	35.4	42.76 ± 0.32	12.11±0.02				Equivalent Tyrosinase (µg kojic acid activity/mg compound) (tyrosinase): 105.58±0.18 µg kojic acid activity/mg compound
COc1ccc(-c2cc(=O)c3c(O)c(OC)c(OC)cc3o2)cc1 [Compound 2, Salvigenin]	22.72 ± 0.14	> 305							inhibition at 10 µg/mL [2, 5]: 43.13 ± 0.21%; IC50 [2, 7]: 34.9 µM
O=C(/C=C/c1ccc(O)c2c1[C@H](C(=O)O[C@H](Cc1ccc(O)c(O)c1)C(=O)O)[C@@H](c1ccc(O)c(O)c1)O2)O[C@H](Cc1ccc(O)c(O)c1)C(=O)O [Compound 3, Salvianolic acid B]	10.11 ± 0.08		14.6			192.26±0.21 µg thiourea activity/mg compou	49.83 ± 0.27	> 139	Inhibition (%) Urease (urease): 45.52±0.68%; inhibition at 10 µg/mL [2, 5]: 49.83 ± 0.27%
O=C(/C=C/c1ccc(O)c(O)c1/C=C/c1ccc(O)c(O)c1)O[C@H](Cc1ccc(O)c(O)c1)C(=O)O [Compound 4, Salvianolic acid A]	38.82 ± 0.12		97.7					46.6	inhibition at 10 µg/mL [2, 5]: 27.49 ± 0.08%
Cc1coc2c1C(=O)C(=O)c1c-2ccc2c1CCCC2(C)C [Compound 5, Tanshinone IIA]		> 340		66.3 ± 1.18		16.12±0.01 µg thiourea activity/mg compou	14.3 ± 0.42		inhibition at 10 µg/mL [1]: 32.3 ± 0.44%; IC50 [2, 7]: 3.8 µM
Cc1cccc2c3c(ccc12)C1=C(C(=O)C3=O)[C@@H](C)CO1 [Compound 6, Dihydrotanshinone I]			1.8	87.19 ± 0.23				5.39	IC50 value (BChE) (BChE [3]): 1.71 µg/mL (≈ 6.14 µM); inhibition at 10 µg/mL [1]: 64.54 ± 0.36%
Cc1coc2c1C(=O)C(=O)c1c-2ccc2c(C)cccc12 [Compound 7, Tanshinone I]			100	33 ± 0.86	39.82±1.16	174.73±0.19 µg thiourea activity/mg compou	42.4 ± 0.85	138	inhibition at 10 µg/mL [1]: 31.3 ± 0.72%; Equivalent Tyrosinase (µg kojic acid activity/mg compound) (tyrosinase): 372.86±2.47 µg kojic acid activity/mg compound
CC(C)c1cc2c(c(O)c1O)[C@@]1(C(=O)O)CCCC(C)(C)[C@@H]1CC2 [Compound 8, Carnosic Acid]	38 ± 0.96	95.7	12.4	58.5 ± 1.18	5.92±0.06	62.12±0.07 µg thiourea activity/mg compou	22.42 ± 0.15		Equivalent Tyrosinase (µg kojic acid activity/mg compound) (tyrosinase): 45.93±0.71 µg kojic acid activity/mg compound
CC(C)c1cc2c(c(O)c1O)[C@@]13CCCC(C)(C)[C@@H]1C[C@@H]2OC3=O [Compound 9, Carnosol]	47.6 ± 23	33.7				26.60±0.03 µg thiourea activity/mg compou	16.1 ± 0.42		inhibition at 10 µg/mL [2, 5]: 57.99 ± 0.15%; IC50 [2, 7]: 11.9 µM and 12.5 µM; IC50 (BChE [4]): 5.1 µM
C[C@H]1COC2=C1C(=O)C(=O)c1c2ccc2c1CCCC2(C)C [Compound 10, Cryptotanshinone]			95.9	35.16 ± 0.27		103.05±0.11 µg thiourea activity/mg compou	29.7 ± 1.16	> 337	inhibition at 10 µg/mL [1]: 17.46 ± 0.11%
O=C(O)C(O)Cc1ccc(O)c(O)c1 (stereo not drawn) [Compound 11, Danshensu Salt]			122	35.37 ± 0.13	6.20±0.08				Equivalent Tyrosinase (µg kojic acid activity/mg compound) (tyrosinase): 48.67±0.23 µg kojic acid activity/mg compound
COc1ccc2c3c1O[C@H]1C[C@@H](O)C=C[C@@]31CCN(C)C2 [Galanthamine, galanthamine hydrobromide, reference compound]				67.52 ± 0.41					
O=c1cc(CO)occ1O [Kojic acid, reference compound]					69.07±0.38				
NC(N)=S [Thiourea, thiourea, reference compound]									Inhibition (%) Urease (urease): 75.14±1.34%
